The values that follow come from US11254640B2, “N-substituted indoles and other heterocycles for treating brain disorders” (The Regents of the University of California, priority 2019, dated 2022).

“Also recorded” adds a separate entry of the source. Structures can show the parent of a compound that is named as a salt.

What is called melting point is the temperature, or range, at which the solid turns liquid.

Data set [1] has as its system cortical neurons. Briefly: Dendritogenesis assay, Sholl analysis. The format is cell-based, rat. To be noted: for Emax at 10 µM: Rattus norvegicus, Cortical neurone, Nmax with vehicle (DMSO) = 0% and ketamine = 100%, read-out: % efficacy in sholls; for dendritic arbor complexity / neuronal growth (Nmax of Sholl plots): cortical neurons; for Emax at 10 µM / dendritic arbor complexity / neuronal growth (Nmax of Sholl plots): 10 μM. From the text:
Dendritogenesis Assays. Phenotypic screening has historically proven more successful than target-based approaches for identifying drugs with novel mechanisms of action. Having established a simple and robust method for accessing isoDMT analogs, tested next was their ability to increase dendritic arbor complexity in cultures of cortical neurons using a phenotypic assay. Following treatment, neurons were fixed and visualized using an antibody against MAP2—a cytoskeletal protein localized to the somatodendritic compartment of neurons. Sholl analysis was then performed, and the maximum number of crossings (Nmax) was used as a quantitative metric of dendritic arbor complexity. For statistical comparisons between specific compounds, the raw Nmax values were compared. Percent efficacies were determined by setting the Nmax values for the vehicle (DMSO) and positive (ketamine) controls equal to 0% and 100%, respectively.
(§1) Animals. For the dendritogenesis experiments, timed pregnant Sprague Dawley rats were obtained from Charles River Laboratories (Wilmington, Mass.). For the head-twitch response assay, male and female C57BL/6J mice were obtained from Jackson Laboratory (Sacramento, Calif.). Mice were housed in a temperature and humidity-controlled room maintained on a 12-h light/dark cycle in groups of 4-5 (same sex). Animals weighed between 17 and 30 g at the time of the experiments. All experimental procedures involving rodents were approved by the UC Davis Institutional Animal Care and Use Committee (IACUC) and adhered to principles described in the National Institutes of Health Guide for the Care and Use of Laboratory Animals. The University of California, Davis and the University of California, San Francisco are accredited by the Association for Assessment and Accreditation of Laboratory Animal Care International (AAALAC).
Dendritogenesis—Sholl Analysis. Dendritogenesis experiments were performed following a previously published method with slight modifications. Neurons were plated in 96-well format (200 μL of media per well) at a density of approximately 15,000 cells/well in Neurobasal (Life Technologies) containing 1% penicillin-streptomycin, 10% heat-inactivated fetal bovine serum, and 0.5 mM glutamine. After 24 h, the medium was replaced with Neurobasal containing 1× B27 supplement (Life Technologies), 1% penicillin-streptomycin, 0.5 mM glutamine, and 12.5 μM glutamate. After 3 days in vitro (DIV3), the cells were treated with compounds. All compounds tested in the dendritogenesis assays were treated at 10 μM unless noted otherwise. Stock solutions of the compounds in DMSO were first diluted 100-fold in Neurobasal before an additional 10-fold dilution into each well (total dilution=1:1000; 0.1% DMSO concentration). Treatments were randomized. After 1 h, the media was removed and replaced with new Neurobasal media containing 1× B27 supplement, 1% penicillin-streptomycin, 0.5 mM glutamine, and 12.5 μM glutamate. The cells were allowed to grow for an additional 71 h. At that time, neurons were fixed by removing 80% of the media and replacing it with a volume of 4% aqueous paraformaldehyde (Alfa Aesar) equal to 50% of the working volume of the well. Then, the cells were incubated at room temperature for 20 min before the fixative was aspirated and each well washed twice with DPBS. Cells were permeabilized using 0.2% Triton X-100 (ThermoFisher) in DPBS for 20 minutes at room temperature without shaking. Plates were blocked with antibody diluting buffer (ADB) containing 2% bovine serum albumin (BSA) in DPBS for 1 h at room temperature. Then, plates were incubated overnight at 4° C. with gentle shaking in ADB containing a chicken anti-MAP2 antibody (1:10,000; EnCor, CPCA-MAP2). The next day, plates were washed three times with DPBS and once with 2% ADB in DPBS. […]

The subject of data set [2] is 5HT2A sensor. Put plainly: 5HT2A sensor assay, agonist mode (sLight1.3s HEK293T stable line). It counts as cell-based. In a few lines: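 Agonist mode in HEK293T cells stably expressing the sLight1.3 5HT2A sensor, washed into HBSS; compounds at final 100 μM, 10 μM and 100 nM (0.1% DMSO), triplicate wells. Membrane fluorescence (ex 460, em 512-542 nm) imaged before and after addition; dFF=(Fsat−Fapo)/Fapo, expressed as percent activation (DMSO=0, 5HT=100).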

Data set [3] relates to 5HT2A sensor. Briefly: 5HT2A sensor assay, antagonist mode (sLight1.3s HEK293T stable line). It counts as cell-based. The following applies: dose response (FIG. 12A, FIG. 12B). In a few lines: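 Inactivation score is computed from membrane dFF as (dFF(compound+5HT)−dFF(5HT))/dFF(5HT), with HBSS-only fluorescence as Fapo. Final concentrations: 5-HT 100 nM added first, then compound at 100 nM, 10 μM or 100 μM in 0.1% DMSO. Triplicates; FITC imaging, 5 fields per well.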

Data set [4] deals with C57BL/6J mice. Put plainly: Head twitch response (HTR) assay. The format is in vivo, mouse. The following applies: intraperitoneal injection, head-twitches over 20 mins (FIG. 8, FIG. 9).
From the text: as §1
Head twitch response experiments. Mice (9-10 weeks old) were injected intraperitoneally with compound (injection volume 5 ml/kg), placed in an empty cage, and filmed for 20 minutes. Cages were cleaned with 70% ethanol between experiments.

For data set [5], the system named is rats. To be noted: rats trained to discriminate DOM from saline; cited from earlier work.

Compound `CN(C)CCn1ccc2cc(Br)ccc21.O=C(O)/C=C/C(=O)O` [Example 20, 2-(5-bromo-1H-indol-1-yl)-N,N-dimethylethan-1-amine] had a melting point of 140 to 142 °C. The Emax at 10 µM in data set [1] worked out at 117%.
Take `CN(C)CCn1cnc2ccccc21.O=C(O)/C=C/C(=O)O` [Example 22, 2-(1H-benzo[d]imidazol-1-yl)-N,N-dimethylethan-1-amine]: the melting point lay in the range of 171 to 178 °C. For the same compound, in data set [1], the Emax at 10 µM stood at 50% and the “dendritic arbor complexity / neuronal growth (Nmax of Sholl plots)” value is reported as “minimal effect on the ability of these molecules to promote neuronal growth”.
With `CN(C)CCn1ccc2c(OCc3ccccc3)cccc21` (as salt: fumarate) [Example 8, 2-(4-(benzyloxy)-1H-indol-1-yl)-N,N-dimethylethan-1-amine], the melting point lay within 145 to 150 °C.
The same measure, in the same setting: in the case of `CN(C)CCn1ccc2c(F)cc(F)cc21` (as salt: fumarate) [Example 18, 2-(4,6-difluoro-1H-indol-1-yl)-N,N-dimethylethan-1-amine] it was 141 to 145 °C.
Compound `CN(C)CCn1ccc2cc(F)ccc21` (as salt: fumarate) [Example 13, 2-(5-fluoro-1H-indol-1-yl)-N,N-dimethylethan-1-amine] registered a melting point of 145 to 148 °C.
Same read-out and setting: in the case of `CN(C)CCn1ccc2cc(F)c(F)cc21` (as salt: fumarate) [Example 17, 2-(5,6-difluoro-1H-indol-1-yl)-N,N-dimethylethan-1-amine] it was 162 to 165 °C.
As for `CN(C)CCn1ccc2ccc(F)cc21.O=C(O)/C=C/C(=O)O` [Example 14, 2-(6-fluoro-1H-indol-1-yl)-N,N-dimethylethan-1-amine], the melting point is 141 to 147 °C. In addition, the Emax at 10 µM in data set [1] came out at 88%.
`CN(C)CCc1cn(C)c2ccccc12` (as salt: fumarate) [Example 27, N,N-dimethyl-2-(1-methyl-1H-indol-3-yl)ethan-1-amine] displayed a melting point of 167 to 170 °C.
Compound `CN(C)C(=O)Cn1ccc2ccccc21` [Example 31, 2-(1H-indol-1-yl)-N,N-dimethylacetamide] returned a melting point of 58 to 61 °C. Also, the “dendritic arbor complexity / neuronal growth (Nmax of Sholl plots)” value in data set [1] was “did not promote neuronal growth”.
In turn, `CN(C)CCn1cccc1` (as salt: fumarate) [Example 23, N,N-dimethyl-2-(1H-pyrrol-1-yl)ethan-1-amine] came in with a melting point of 174 to 180 °C.
Take `COc1ccc2c(CCN(C)C)c[nH]c2c1` [Example 30, 2-(6-methoxy-1H-indol-3-yl)-N,N-dimethylethan-1-amine, reference compound]: the “activation of 5HT2A sensor assay in agonist mode at 10 μM” value in data set [2] (10 μM of compound (FIG. 11)) is listed as “do not activate the 5HT2A sensor assay in agonist mode”. The “activation of 5HT2A sensor assay in agonist mode (dose response)” value in data set [2] (dose response (FIG. 10)) is recorded as “do not”. In addition, the “competition with 5-HT in 5HT2A sensor assay, antagonist mode (dose response)” value in data set [3] was “compete off 5-HT”. Further, in data set [1], the Emax at 10 µM stood at 72%. The “head-twitch response (hallucinogenic potential)” value in data set [4] was “did not produce a HTR”. Further, in data set [5], the “substitution for hallucinogenic training drug (DOM) in drug discrimination” value is “does not”.
The compound `CN(C)CCn1ccc2cccc(F)c21` (as salt: fumarate) [Example 15, 2-(7-fluoro-1H-indol-1-yl)-N,N-dimethylethan-1-amine] registered a melting point of 168 to 170 °C.
For the compound `Cc1cc2ccccc2n1CCN(C)C.O=C(O)/C=C/C(=O)O` [Example 16, N,N-dimethyl-2-(2-methyl-1H-indol-1-yl)ethan-1-amine], the melting point lay within 131 to 133 °C. Besides, in data set [1], the Emax at 10 µM was determined as 104% and the “dendritic arbor complexity / neuronal growth (Nmax of Sholl plots)” value is recorded as “well tolerated”.
`CN(C)CCn1ccc2c(F)cccc21` (as salt: fumarate) [Example 12, 2-(4-fluoro-1H-indol-1-yl)-N,N-dimethylethan-1-amine] came in with a melting point of 145 to 149 °C.
Turning to `CN(C)CCn1ccc2ccc([N+](=O)[O-])cc21.O=C(O)/C=C/C(=O)O` [Example 19, N,N-dimethyl-2-(6-nitro-1H-indol-1-yl)ethan-1-amine], the melting point was in the range of 159 to 164 °C. Also, in data set [1], the Emax at 10 µM worked out at 85%.
For `CN(C)CCn1ccc2ccccc21.O=C(O)/C=C/C(=O)O` [Example 2, 2-(1H-indol-1-yl)-N,N-dimethylethan-1-amine], the melting point is 147 to 149 °C. Also, in data set [1], the Emax at 10 µM is 87% and the “dendritic arbor complexity / neuronal growth (Nmax of Sholl plots)” value is given as “increase dendritic arbor complexity to a comparable extent as DMT (1); also recorded: increased dendritic arbor complexity to a comparable extent as 1”. Moreover, the “psychoplastogenic efficacy and potency, concentration-response (Nmax)” value in data set [1] (concentrations ranging from 10 μM to 10 pM (FIG. 6)) is “comparable maximum efficacies and had similar potencies as isosteric DMTs (1 and 28)”.
For the compound `CN(C)CCn1ccc2cc(OCc3ccccc3)ccc21` (as salt: fumarate) [Example 9, 2-(5-(benzyloxy)-1H-indol-1-yl)-N,N-dimethylethan-1-amine], the melting point lay in the range of 133 to 135 °C.
`CN(C)CCCn1ccc2ccccc21.O=C(O)/C=C/C(=O)O` [Example 26, 3-(1H-indol-1-yl)-N,N-dimethylpropan-1-amine] registered a melting point of 129 to 131 °C. Moreover, in data set [1], the Emax at 10 µM stood at 70% and the “dendritic arbor complexity / neuronal growth (Nmax of Sholl plots)” value is recorded as “only a slight decrease in the Nmax value”.
Taken in the same sequence, the figures for `CN(C)CCn1c2ccccc2c2ccccc21.O=C(O)/C=C/C(=O)O` [Example 24, 2-(9H-carbazol-9-yl)-N,N-dimethylethan-1-amine] were 182 to 184 °C, 86% and “minimal effect on the ability of these molecules to promote neuronal growth”.
